According to patent publication US5807889A, “Aminomethylindans, -benzofuranes and -benzothiophenes” (H. Lundbeck A/S, priority 1992, dated 1998):

Target: T1, 5-HT1A receptors (Rattus norvegicus, UniProt P19327)
T1 sequence (P19327 1-422): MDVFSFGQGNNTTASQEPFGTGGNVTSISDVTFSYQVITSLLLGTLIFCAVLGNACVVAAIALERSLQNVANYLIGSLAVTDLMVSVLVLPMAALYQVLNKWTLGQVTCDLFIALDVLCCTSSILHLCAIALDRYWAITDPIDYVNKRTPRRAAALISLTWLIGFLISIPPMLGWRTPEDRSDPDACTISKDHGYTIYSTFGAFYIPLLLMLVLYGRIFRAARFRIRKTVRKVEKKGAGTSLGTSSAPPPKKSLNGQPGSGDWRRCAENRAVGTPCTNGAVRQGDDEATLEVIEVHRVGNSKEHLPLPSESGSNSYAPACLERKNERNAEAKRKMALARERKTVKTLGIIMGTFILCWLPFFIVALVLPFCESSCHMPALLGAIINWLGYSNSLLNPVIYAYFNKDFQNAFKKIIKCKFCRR
Test: 8-OH DPAT cue agonism in rats (drug discrimination)
Type: in vivo, male Wistar rats
Set-up: agonist effects of a test compound on 5-HT1A receptors in vivo; from tissue; host or cells: living male Wistar rats (endogenous receptor, in vivo)
Settings: sc, read-out: 8-OH DPAT Cue Agonism ED50, rats, s.c., usually 30 or 45 min before test
Method: 8-OH DPAT Cue Agonisme in Rats
This test model is used to determine the agonist effects of a test compound on 5-HT1A receptors in vivo. A related method is described by Tricklebank, M. D., et al, Eur. J. Pharmacol., 1987, 133, 47-56; Arnt, J. Pharmacology & Toxicology, 1989, 64, 165.
Male Wistar rats are trained to discriminate between 8-OH-DPAT (0.4 mg/kg, i.p., 15 min pretreatment) and physiological saline in operant chambers equipped with two response levers. Between the levers a dipper is placed, where water rewards (0.1 ml) are presented. The rats are water deprived for at least 24 h and work in a fixed ratio (FR) schedule (final FR=32).
Following 8-OH-DPAT administration responding is reinforced only on a designated (drug) lever, whereas responding on the opposite lever has no consequences. Following saline administration responding is reinforced on the lever opposite to the drug lever. Drug and saline trials alternate randomly between days. The level of s discrimination occuracy is expressed as the per cent drug responses and is calculated as the number of correct responses ×100 divided by the sum of the correct and incorrect responses before the first reward. The time to the first reward is also recorded as a measure of reaction time. When stable occuracy (mean correst responding=90%; individual rats at least 75% correct responding) is obtained test sessions are included between training days. Test compound is injected s.c. usually 30 min or 45 min, respectively, before beginning of the test. The test trial is terminated when a total of 32 responses are made on either lever or when 20 min have elapsed. No reward is given and the rats have free access to water for 20-30 min after the test. The effects are expressed as per cent drug responding. Only results from rats making at least 10 responses on one lever are included in data analysis. Furthermore, only test sessions in which at least half of the rats respond are included.
The per cent inhibition of drug response obtained for each dose of test compound is used to calculate ED50 values by log-probit analysis.

| Molecule | ED50 [µmol/kg] |
| --- | --- |
| CCCN(CCC)C1CCc2cccc(O)c2C1 (centres unmarked) [8-OH DPAT, 8-hydroxy-2-dipropylaminotetralin, reference compound] | 0.1 |

Target: T1, 5-HT1A receptors
Test: Inhibition of 3H-8-OH-DPAT binding to serotonin 5-HT1A receptors in rat brain in vitro
Set-up: 5-HT1A receptors in membranes from rat brain minus cerebellum; from tissue; host or cells: brain minus cerebellum of male Wistar (Mol:Wist) rats, crude membranes; species or system rat (male Wistar)
Settings: 3H 8-OH DPAT binding IC50, 1 nM 3H-8-OH-DPAT, rat brain minus cerebellum membranes, 37° C., 15 min
Method: Male Wistar (Mol:Wist) rats (125-250 g) are sacrificed and the brain is dissected and weighed. The brain tissue minus cerebellum is homogenized (Ultra Turrax, 20 sec) in 10 ml of ice cold 50 nM Tris buffer pH 8.0 (at 25° C.) containing 120 mM NaCl, 4 mM CaCl2 and 4 mM MgCl2. The homogenate is centrifuged at 20,000 g for 10 min at 4° C. The pellet is homogenized in 10 ml of buffer and incubated at 37° C. for 10 min. The homogenate is centrifuged as above and the pellet is homogenized in 100 vol (w/v) ice cold buffer containing 10 μM of pargyline.
Incubation tubes kept on ice in triplicate receive 100 μl of drug solution in water (or water for total binding) and 1000 μl of tissue suspension (final tissue content corresponds to 10 mg original tissue). […] After incubation for 15 min the samples are filtered under vacuum (0-50 mBar) through Whatman GF/F filters (25 mm). The tubes are rinsed with 5 ml ice cold 0.9% NaCl which is then poured on the filters. Thereafter, the filters are washed with 2×5 ml 0.9% NaCl. The filters are placed in counting vials and 4 ml of appropriate scintillation fluid (e.g. Picofluor™ 15) are added. After shaking for 1 h and storage 2 h in the dark the content of radioactivity is determined by liquid scintillation counting. Specific binding is obtained by subtracting the nonspecific binding in the presence of 10 μM of 5-HT.
For determination of the inhibition of binding five concentrations of drugs covering 3 decades are used.
The IC50 -value is determined as the concentration, at which the binding is 50% of the total binding in control samples minus the nonspecific binding in the presence of 10 μM of 5-HT.

| Molecule | IC50 [µM] |
| --- | --- |
| CC(=O)Nc1ccc2c(c1)C(CN1CCCCC1)CC2 (single isomer, unassigned; (-)) [Compound 8e, (-)-6-acetylamino-1-(1-piperidinomethyl)indan] | 0.0067 |
| CCCN(CCC)CC1CCc2cc(Br)c(NC(C)=O)cc21 (centres unmarked) [Compound 11d, 6-Acetylamino-5-bromo-1-(N,N-dipropylaminomethyl)indan] | 0.12 |
| CCCN(CCC)CC1CCc2ccc(NC(C)=O)c(Cl)c21 (centres unmarked) [Compound 2f, 6-Acetylamino-7-chloro-1-(N,N-dipropylaminomethyl)indan] | 0.34 |
| CNCC1CCc2ccc(NC(C)=O)cc21 (centres unmarked) [Compound 12a, 6-Acetylamino-1-(N-methylaminomethyl)indan] | 0.025 |
| CCCN(CCC)CC1CCc2ccc(NC(=O)N(C)C)cc21 (single isomer, unassigned; (-)) [Compound 10c, (-)-6-(3,3-dimethyl-1-ureido)-1-(N, N-dipropylaminomethyl)indan] | 0.0081 |
| O=CNc1ccc2c(c1)C(CN1CCCC1)CC2 (centres unmarked) [Compound 1d, 6-Formylamino-1-(1-pyrrolidinomethyl)indan] | 0.019 |
| CCCN(CCC)CC1CCc2ccc(NCc3ccc(F)cc3)cc21 (centres unmarked) [Compound 6a, 1-(N,N-dipropylaminomethyl)-6-(4-fluorobenzylamino)indan] | 0.02 |
| CCCN(CCC)CC1CCc2ccc(NC(N)=O)cc21 (centres unmarked) [Compound 3a, 1-(N,N-dipropylaminomethyl)-6-ureido-indan] | 0.00056 |
| CCCN(CCC)CC1CCc2ccc(NC=O)cc21 (single isomer, unassigned; (+)) [Compound 10b, (+)-1-(N,N-dipropylaminomethyl)-6-formylaminoindan] | 0.0042 |
| CC(=O)Nc1ccc2c(c1)C(CN(C)CCCCN1CCN(c3ccc(F)cc3)C1=O)CC2 (centres unmarked) [Compound 13h, 6-Acetylamino-1-[N-[4-[3-(4-fluorophenyl)-2-imidazolidinon-1-yl]-1-butyl]-N-methylaminomethyl]indan] | 0.0048 |
| CC(=O)Nc1ccc2c(c1)C(CN(C)CCCN1CCN(c3ccccc3)C1=O)CC2 (centres unmarked) [Compound 13g, 6-Acetylamino-1-[N-methyl-N-[3-(3-phenyl-2-imidazolidinon-1-yl)-1-propyl]aminomethyl]indan] | 0.001 |
| CCCN(CCC)CC1CCc2ccc(NC(C)=O)cc21 (single isomer, unassigned; (-)) [Compound 8a, (-)-6-Acetylamino-1-(N,N-dipropylaminomethyl)indan] | 0.00064 |
| CCCN(CCC)CC1CCc2ccc(NS(C)(=O)=O)c(Cl)c21 (centres unmarked) [Compound 2h, 7-chloro-1-(N,N-dipropylaminomethyl)-6-(methylsulphonylamino)indan] | 2 |
| CC(=O)Nc1ccc2c(c1)C(CN1CCCCC1)CS2 (centres unmarked) [Compound 2i, 5-acetylamino-3-(1-piperidinomethyl)-2,3-dihydrobenzothiophene] | 0.0063 |
| CC(=O)Nc1ccc2c(c1)C(CN1CCCCC1)CC2 (single isomer, unassigned; (+)) [Compound 8f, (+)-6-acetylamino-1-(1-piperidinomethyl)indan] | 0.015 |
| CC(=O)Nc1ccc2c(c1)C(CN1CCCCC1)CC2 (centres unmarked) [Compound 5c, 6-acetylamino-1-(1-piperidinomethyl)indan] | 0.0065 |

| Molecule | IC50 [µM] |
| --- | --- |
| CCCN(CCC)CC1CCc2ccc(NC(=O)Nc3ccc(F)cc3)cc21 (single isomer, unassigned; (-)) [Compound 10e, (-)-6-[3-(4-fluorophenyl)-1-ureido]-1-(N,N-dipropylaminomethyl)indan] | 0.16 |
| CCCN(CCC)CC1CCc2ccc(NC(=O)Nc3ccc(F)cc3)cc21 (single isomer, unassigned; (+)) [Compound 10f, (+)-6-[3-(4-fluorophenyl)-1-ureido]-1-(N,N-dipropylaminomethyl)indan] | 0.063 |
| CC(=O)Nc1ccc2c(c1)C(CN(C)CCCN1CCN(C3CCCCC3)C1=O)CC2 (centres unmarked) [Compound 13i, 6-Acetylamino-1-[N-[3-(3-cyclohexyl-2-imidazolidinon-1-yl)-1-propyl]-N-methylaminomethyl]indan] | 0.0022 |
| CN(C)CC1CCc2ccc(NC=O)cc21 (single isomer, unassigned; (-)) [Compound 10g, (-)-1-(N,N-dimethylaminomethyl)-6-formylaminoindan] | 0.048 |
| CC(=O)Nc1ccc2c(c1)C(CN(C)CCCCN1CCN(C3CCCCC3)C1=O)CC2 (centres unmarked) [Compound 13f, 6-Acetylamino-1-[N-[4-(3-cyclohexyl-2-imidazolidinon-1-yl)-1-butyl]-N-methylaminomethyl]indan] | 0.0051 |
| CCCN(CCC)CC1CCc2ccc(NC(=O)N(C)C)cc21 (single isomer, unassigned; (+)) [Compound 10d, (+)-6-(3,3-dimethyl-1-ureido)-1-(N,N-dipropylaminomethyl)indan] | 0.022 |
| CN(C)CC1CCc2ccc(NC=O)cc21 (single isomer, unassigned; (+)) [Compound 10h, (+)-1-(N,N-dimethylaminomethyl)-6-formylaminoindan] | 0.22 |
| CCCN(CCC)CC1CCc2ccc(NC=O)cc21 (single isomer, unassigned; (-)) [Compound 10a, (-)-1-(N,N-dipropylaminomethyl)-6-formylaminoindan] | 0.001 |
| CC(=O)Nc1ccc2c(c1)C(CN(C)CCN1CCN(c3ccc(F)cc3)C1=O)CC2 (centres unmarked) [Compound 13e, 6-Acetylamino-1-[N-[2-[3-(4-fluorophenyl)-2-imidazolidinon-1-yl]ethyl]-N-methyl-aminomethyl]indan] | 0.027 |
| CCCCCCCCCNC(=O)Nc1ccc2c(c1)C(CN(CCC)CCC)CC2 (centres unmarked) [Compound 4d, 1-(N,N-dipropylaminomethyl)-6-(3-nonyl-1-ureido)indan] | 0.17 |
| CCCN(CCC)CC1CCc2ccc(NC(=O)NC)cc21 (centres unmarked) [Compound 4b, 1-(N,N-dipropylaminomethyl)-6-(3-methyl-1-ureido)indan] | 0.0066 |
| CCCN(CCC)CC1CCc2ccc(NC(=O)Nc3ccccc3)cc21 (centres unmarked) [Compound 4a, 1-(N,N-dipropylaminomethyl)-6-(3-phenyl-1-ureido)indan] | 0.08 |
| CC(=O)Nc1ccc2c(c1)C(CN(C)CCCCCCN1CCN(C3CCCC3)C1=O)CC2 (centres unmarked) [Compound 13j, 6-Acetylamino-1-[N-[6-(3-cyclopentyl-2-imidazolidinon-1-yl)-1-hexyl]-N-methylaminomethyl]indan] | 0.0032 |
| CCCN(CCC)CC1CCc2ccc(NC(=O)NC3CCCC3)cc21 (centres unmarked) [Compound 4e, 6-(3-cyclopentyl-1-ureido)-1-(N,N-dipropylaminomethyl)indan] | 0.17 |
| CC(=O)Nc1ccc2c(c1)C(CN(C)CCCCN1CCNC1=O)CC2 (centres unmarked) [Compound 13k, 6-Acetylamino-1-[N-[4-(2-imidazolidinon-1-yl)-1-butyl]-N-methylaminomethyl]indan] | 0.79 |
| CCCN(CCC)CC1CCc2cc(Cl)c(NC(C)=O)cc21 (single isomer, unassigned; (+)) [Compound 11c, (+)-6-Acetylamino-5-chloro-1-(N,N-dipropylaminomethyl)indan] | 0.014 |

Same assay, conditions: read-out: 3H 8-OH DPAT binding IC50; 1 nM 3H-8-OH-DPAT, rat brain minus cerebellum membranes, 37° C., 15 min

| Molecule | IC50 [µM] |
| --- | --- |
| 3-[N-(2-phenylethyl)-N-propylaminomethyl]-5-formylaminomethyl-2,3-dihydrobenzothiophene [Compound 5b] | 0.06 |
| CCCN(CCC)CC1CCc2ccc(NC(C)=O)cc21 (single isomer, unassigned; (+)) [Compound 8b, (+)-6-Acetylamino-1-(N,N-dipropylaminomethyl)indan] | 0.00064 |
